In patent publication US4996223A, “New organic compounds having opioid properties” (priority 1986, dated 1991):
Converted amounts (≈) assume the structure as drawn. “Also recorded” adds a separate entry of the source. Where two headings read alike, the source gives them in different places.

What was measured:
[1] = tested on: opioid receptors of the guinea pig ileum; format: cell-based; details: for inhibition of electrically induced contractions / antagonism by naloxone / opioid (opiate-like) activity in vitro: words; for antagonism by naloxone: naloxone 0.5, 5 and 50 ng/ml (eseroline) or 5 and 50 ng/ml; for opioid (opiate-like) activity in vitro: isolated tissue preparations; for log dose ratio (±S.D.), shift by naloxone, ileum: mean of not less than 6 determinations; for enhancement of electrically induced contractions / excitatory stage: eseroline above 400 ng/ml in presence of naloxone; for evidence of cholinesterase inhibition on the ileum: inferred from enhancement of contractions
Protocol: Sections of guinea-pig ileum were set up for transmural stimulation under a resting tension of 0.75 g in Krebs solution bubbled with 5% carbon dioxide in oxygen at 37 degrees C according to the method of Kosterlitz and Watt (1968) Contractions were elicited from stainless steel electrodes, one of which was sited in the lumen at supramaximal voltage and a frequency of 0.05 Hz. Isometric contractions were recorded on a Rikadenki recorder. Potential agonists were added directly to the bath and the contact time was until maximum inhibition had occurred. The responses of the preparation in the presence of naloxone were examined with the naloxone present in the physiological solution. Results were expressed as percent inhibition. In each experiment a log dose effect relationship was determined using at least four concentrations in the absence of antagonist, and then in the presence of one or more concentrations of naloxone.
(§1) Eseroline was dissolved in minimal 0.1N hydrophloric acid and dilutions made with water. Salts were dissolved in water.

mice [2] = assay: animal or person; format: in vivo; details: Mus musculus, sc, subcutaneous injection, 95% confidence intervals, read-out: ED50 Abdominal Constriction (Acetic acid)
Protocol: (§2) Analgesic activity was assessed using two methods in mice--the Hot Plate Test and the Abdominal Constriction Test (acetic acid). The test drug was given by subcutaneous injection and the results expressed as ED50 with 95% confidence intervals.
(§3) ED50 and 95% confidence intervals.
(§4) mg/kg, subcutaneous injection.

[3] = tested on: opioid receptors of the mouse vas deferens; format: cell-based; details: for log dose ratio (±S.D.), shift by naloxone, vas deferens: mean of not less than 6 determinations
Protocol: Vasa deferentia were removed and mounted in 1.2 ml tissue baths under a resting tension of 200 mg in Mg^2+ -free Krebs solution bubbled with a mixture of 95% oxygen and 5% carbon dioxide at 36 degrees C. The preparations were left for 1 hour to equilibriate. Contractions were elicited from platinum electrodes fused to the sides of the tissue bath using supramaximal voltage (usually above 100 V), a pulse width of lms and a frequency of 0.1 Hz. Isometric contractions were recorded on a Grass polygraph. As with the ileum, concentration effect relationships were determined in the absence then presence of naloxone.
as §1
The values are derived from individual comparisons of the percentage inhibition of the preparations in the presence of a concentration of naloxone and that in the same preparation in the absence of naloxone.

[4] = tested on: cholinesterase (guinea pig ileum as the enzyme source); assay: Anticholinesterase Test (method of Ellman, Courtney et al.); format: biochemical; details: concentrations up to 6.4 ug/ml where stated
Protocol: Anticholinesterase activity was assessed using the method of Ellman, Courtney et al., (1961) using guinea pig ileum as the enzyme source.

mice [5] = assay: animal or person; format: in vivo, mouse; details: for ED50: Mus musculus, read-out: ED50 Hot Plate; for antagonism of analgesia by naloxone: analgesic tests (Hot Plate and Abdominal Constriction)
Protocol: as §2, §3, §4

[6] = relative to morphine; cited from earlier work
cholinesterase = details: cited from earlier work
[7] = Naloxone 10 ng/ml (so in the source)

For `CN1c2ccc(O)cc2C23CCCCC12N(CC1CC1)CC3` (racemic) [1,2,3,4-tetrahydro-6-hydroxy-9-methyl-10-cyclopropylmethyl-9a,4a-(iminoethano)-9H-carbazole], the “antagonist activity against morphine” value [1] was “no detectable antagonist activity against morphine”, the “inhibition of electrically induced contractions” value ([1]; guinea pig ileum) was “inhibited the contractions of the ileum, but was of weaker potency” and the antagonism by naloxone ([1]; guinea pig ileum) was “Naloxone had little antagonist activity”.

For `C=CCN1CCC23CCCCC12N(C)c1ccc(O)cc13` (racemic) [6-Hydroxy-9-methyl-10-allyl-echiboline, 1,2,3,4-tetrahydro-6-hydroxy-9-methyl-10-allyl-9a,4a-(iminoethano)-9H-carbazole], the “IC50, inhibition of contractions of the ileum” value [1] was 0.3 µg/mL, the “antagonist activity against morphine” value [1] was “no antagonist activity against morphine” and the “potency relative to morphine” value [1] was “about ten times less potent than morphine”. The “receptor selectivity / receptor population compared with morphine” value [1] was “interaction with a different receptor population than that with which morphine interacts; also recorded: likely to be the "kappa" receptor”, the antagonism by naloxone ([1]; guinea pig ileum) was “antagonized by naloxone; also recorded: relative lack of potency of naloxone as an antagonist” and the “opioid (opiate-like) activity in vitro” value [1] was “possesses opioid agonist activity in vitro”.

For `CN1CCC23CCCCC12N(C)c1ccc(O)cc13` (racemic) [6-hydroxy-9,10-dimethyl-echiboline, 1,2,3,4-tetrahydro-6-hydroxy-9,10-dimethyl-9a,4a-(iminoethano)-9H-carbazole], the ED50 (mice [2]) was 0.23 mg/kg, the “antagonism by naloxone compared with morphine” value [3] was “some ten times less effective as an antagonist than against morphine” and the “log dose ratio (±S.D.), shift by naloxone, vas deferens” value [3, 7] was 0.87 (+0.19). For the same compound, the “log dose ratio (±S.D.), shift by naloxone, vas deferens” value ([3]; Naloxone 500 ng/ml) was 1.66 (+0.13), the anti-cholinesterase inhibitory activity [4] was “no evidence of cholinesterase inhibitory activity” and the anti-cholinesterase inhibitory activity ([4]; listed as echiboline derivative) was “no detectable anti-cholinesterase inhibitory activity”. For the same compound, the “receptor selectivity / receptor population compared with morphine” value [1] was “differs from that of morphine”, the “log dose ratio (±S.D.), shift by naloxone, ileum” value ([1]; Naloxone 5 ng/ml) was 0.91 (+0.27) and the “log dose ratio (±S.D.), shift by naloxone, ileum” value [1, 7] was 1.54 (+0.22). For the same compound, the “EC50 (±SD) Guinea-pig ileum” value ([1]; Table 1, mean of not less than 12 determinations, S.D. range on next line) was 33.5 ng/mL (≈ 0.13 µM), the “inhibition, some individual values” ([1]; guinea pig ileum, individual values) was “over 90%” and the “inhibition of electrically induced contractions” value ([1]; guinea pig ileum) was “similarly inhibited the electrically-induced contractions”. The antagonism by naloxone ([1]; guinea pig ileum) was “antagonised by naloxone in a concentration-dependent manner”, the “enhancement of electrically induced contractions / excitatory stage” value ([1]; guinea pig ileum) was “at no stage was an excitatory stage seen; also recorded: No enhancement of contractions was seen” and the “evidence of cholinesterase inhibition on the ileum” value [1] was “no evidence of cholinesterase inhibition”. The “opioid (opiate-like) activity in vitro” value [1] was “possessed opiate-like activity”, the ED50 (mice [5]; sc, mice, subcutaneous injection, 95% confidence intervals) was 1.71 mg/kg and the “antagonism of analgesia by naloxone” value (mice [5]; mice) was “antagonised by naloxone”. The “potency relative to morphine in mice” value (mice [5]; mouse, in vivo, sc) was “somewhat greater than that predicted from the in vitro tests”.

For `CN1CCC2(C)c3cc(O)ccc3N(C)C12` (single isomer, unassigned) [eseroline, reference compound], the analgesic properties [6] is given as “approximately equipotent with morphine”, the “maximum inhibition of electrically induced contractions” value ([1]; guinea pig ileum) is given as “about 50%” and the “inhibition of electrically induced contractions” value ([1]; guinea pig ileum) is given as “concentration-dependent inhibition of contractions”. For the same compound, the antagonism by naloxone ([1]; guinea pig ileum) was “antagonised by naloxone in a concentration-dependent manner”, the “enhancement of electrically induced contractions / excitatory stage” value ([1]; guinea pig ileum) was “enhanced electrically-induced contractions of the muscle” and the “evidence of cholinesterase inhibition on the ileum” value [1] was “evidence for anti-cholinesterase activity was also seen”. For the same compound, the “opioid (opiate-like) activity in vitro” value [1] was “has opiate activity” and the anticholinesterase activity (cholinesterase) was “retains undesirable anticholinesterase activity”.

For `C=CCN1CC[C@]23c4c5ccc(O)c4O[C@H]2C(=O)CC[C@@]3(O)[C@H]1C5` [Naloxone, naloxone, reference compound], the “antagonism of analgesia by naloxone” value (mice [5]; mice) was “effective antagonist”.

With `CN1CC[C@]23c4c5ccc(O)c4O[C@H]2[C@@H](O)C=C[C@H]3[C@H]1C5` [morphine, reference compound] the “times more potent than (±)-6-hydroxy-9,10-dimethyl-echiboline” value ([3]; mouse vas deferens, from EC50 values) was 3.6 times, the “times more potent than (±)-6-hydroxy-9,10-dimethyl-echiboline” value ([1]; guinea pig ileum, from EC50 values) was 2.8 times and the “inhibition of electrically induced contractions” value ([1]; guinea pig ileum) was “familiar inhibition of the preparation”. The antagonism by naloxone ([1]; guinea pig ileum) was “naloxone antagonism was confirmed” and the ED50 (mice [5]; sc) was 3.22 mg/kg.
